# From paper PMC3731988 (Molecular microbiology, 2013)
# Molecular target: T1, threonine dehydrogenase (Tdh) (Escherichia coli, UniProt P07913)
# T1 sequence (P07913 1-341): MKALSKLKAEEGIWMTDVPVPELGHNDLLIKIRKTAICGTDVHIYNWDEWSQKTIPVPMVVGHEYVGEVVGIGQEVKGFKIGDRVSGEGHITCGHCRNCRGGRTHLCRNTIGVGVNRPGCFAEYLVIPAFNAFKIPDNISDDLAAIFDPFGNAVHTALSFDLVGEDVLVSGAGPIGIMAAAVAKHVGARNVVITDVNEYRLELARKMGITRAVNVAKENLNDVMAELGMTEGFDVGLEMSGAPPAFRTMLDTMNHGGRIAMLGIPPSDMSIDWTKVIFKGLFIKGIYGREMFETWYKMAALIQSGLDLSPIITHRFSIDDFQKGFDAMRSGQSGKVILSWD
# Assay: NADH formation at […] nm
# Format: biochemical
# Conditions: Fe(II)-loaded enzyme; 30 mM threonine, 1 mM NAD+, 50 mM Tris-HCl pH 8.4, 25 °C, anaerobic
smiles,measurement,value
C[C@@H](O)[C@H](N)C(=O)O [threonine],NADH formation at 340 nm,"Tdh oxidizes threonine, with the production of NADH that can be monitored"
